The values that follow come from US20150093333A1, “COMPOSITIONS, METHODS AND USES FOR PEPTIDES IN DIAGNOSIS, PROGRESSION AND TREATMENT OF CANCERS” (THE REGENTS OF THE UNIVERSITY OF COLORADO, body corporate, priority 2003, published 2015).

Experiment [1] has as its system PS-exposing cell membranes. The experiment in a line: Fluorescence staining of PS-exposing membranes in dissected gonads of C. elegans. To be noted: wild type (N2), tat-1(tm3117) and ced-7(n2094) animals. The experiment is classed as in vivo. As for the experimental part:
Fluorescence staining assays were carried out in an acceptible C. elegans model with PS-exposing cell membranes. […] NBD-MARCKS-ED was used to stain the dissected gonads of wild type (N2) animals, tat-1(tm3117) mutant animals, and engulfment-deficient ced-7 (n2094) mutant animals, respectively. 36 hour old hermaphrodite adult animals were collected and gently dissected by cutting their heads in a depression slide with a gonad dissection buffer (previously presented) to expose the gonads. The exposed gonads were then washed once in the dissection buffer and transferred to a dissection buffer containing 4 μM of Hoechst 33342 and 20 μM of NBD labeled MARCKS-ED peptide, 20 μM NBD-MARCKSmut1 peptide, or 10 nM Alexa Fluor 488-conjugated Annexin-V for 45 minutes. Gonads were washed one more time in the dissection buffer, placed on a 5% agarose pad, and visualized using a Nomarski microscope equipped with an epifluorescence detector.
FIGS. 6A-6C illustrate exemplary staining results using MARCKS derived peptides and Annexin V. PS is typically kept in the inner leaflet of plasma membranes in living cells and is exposed on the cell surface only under certain cellular events, i.e., when cells undergo apoptosis or lose the ability to maintain the PS asymmetry with a tat-1 gene mutation. FIG. 6A represents the staining results with labeled MARCKS-ED in wild type and mutants C. elegans. […] FIG. 6B represents the staining results with labeled MARCKSmut1 in wild type and mutants C. elegans. […] In FIGS. 6A-6B, nuclei were stained with Hoechst 33342. Annexin-V, a known PS-sensor, was also used to stain the gonads of tat-1 and ced-7 mutant C. elegans. […] Hoechst33342 (4 μM), FITC-AnnexinV (10 nM) and Nomarski images are shown. […] Scale bar=10 μm.

Another experiment relates to synthetic lipid vesicles. The experiment in a line: Fluorescence enhancement assay of NBD-labeled MARCKS peptides with synthetic vesicles. The experiment is classed as binding. An excerpt:
In another exemplary method, lipid vesicles were employed to the curvature-sensing behavior of the MARCKS derived peptides with various sizes and lipid components. The membrane curvature is defined as the reciprocal of the diameter of a particular particle, e.g., smaller-sized vesicles present highly curved membrane bilayers. A series of lipid models were made to represent various lipid components that closely resemble the lipid composition of biological membranes. […] Dynamic light scattering (DLS) and negative-stain transmission electron microscopy (TEM) were performed to confirm the different vesicle sizes following the pressure-controlled extrusion process through different membrane diameter pores. Commercial polystyrene beads were used as the calibration standard for the vesicle size validation experiments. Furthermore, a time-course experiment was carried out to confirm the stability of the vesicles up to 16 hours. Three different membrane diameters were extruded for the following biophysical characterizations: 30 nm, 100 nm, 400 nm, reflecting different membrane curvatures.
Next, a fluorescence enhancement assay was conducted to further quantify the curvature- and PS-sensing behavior of MARCKS-ED. Appropriate controls were performed to confirm that the fluorophore alone had no effect on the observed fluorescence enhancement (data not shown). FIG. 4 represents histogram data of fluorescence enhancement assay with and fluorescence anisotropy titration of the NBD labeled MARCKS derived peptides. Upon binding to lipid vesicles, the fluorescence intensity of NBD-MARCKS-ED increased due to vesicle binding and changes in the hydrophobic environment surrounding the fluorophore, concurring with a slight blue shift of the maximum emission wavelength. The emission spectra of all NBD-labeled peptides were recorded using a Fluorolog-3 fluorometer with λex=480 nm. The peptides and protein were tested at a concentration of 500 nM in PBS (pH 7.40) treated with 500 μM synthetic vesicles of different vesicles sizes. […] The positive control C2AB (200 nM) from the rat Synaptotagmin-1 (Syn-1) protein (G374, residues 96-421) was treated with CaCl2 (2.5 mM) and observed with λex of 275 nm and emission range of 300-450 nm. The untreated peptide and Ca^2+-C2AB samples were corrected by the PBS (pH=7.40) blank solution for the peptides and PBS with Ca^2+ for the Ca^2+-C2AB sample. All samples were prepared and incubated overnight in 4° C.
FIG. 4A illustrates a histogram plot of fluorescence intensity of MARCKS-ED treated with lipid vesicles of various sizes. […] Last, the fluorescence intensity differences were less significant with vesicles containing no PS. […]

Another experiment concerns isolated microvesicles. The experiment in a line: Fluorescence enhancement with isolated rat microvesicles. The experiment is classed as binding. How it is done: In another exemplary method, having established the simultaneous curvature- and PS-sensing by MARCKS-ED in synthetic liposomes, MARCKS-ED was tested on detection of highly curved, PS-enriched particles in a complex biological system. Microvesicles (ø=0.03-1 μm) are highly curved lipid vesicles that shed into body fluids (e.g., blood, urine, ascitic fluid). These vesicles are released by cancerous cells in which lipid asymmetry is de-regulated, contributing to externalization and enrichment of PS on their outer leaflet. The microvesicle detecting ability of MARCKS-ED was investigated using plasma samples from a stressed rat model. […]
Microvesicles in these samples were characterized by TEM imaging, and ELISA of detection of the signature CD63 protein and the membrane transport protein Rab5b exposed on the surface. Particles expressing both proteins were captured by antibodies and quantified in a colorimetric endpoint assay.
These isolated microvesicles were measured by nanoparticle tracking analysis (NTA) to confirm their average size (ø=56 nm). Tracking analyses were performed using the NanoSight LM10-HS instrument (Amesbury, UK) equipped with a 532 nm laser and observed at scatter and fluorescence modes (filter=550 nm). […]
Monitored at λex=295 nm, Annexin-V (0.32 μM) was treated with CaCl2 (3 mM) in TES buffer and with 500 μM lipid vesicles of varying PS content. […]

Turning to KKKKKRFSFKKSFKLSGFSFKKNKK [MARCKS-ED], the “staining of PS-exposed membranes” value in experiment [1] is “recognizes PS exposed on the surface of all germ cells in the tat-1 (tm3117) mutant and un-engulfed apoptotic germ cell corpses in the ced-7(n2094) mutant”. Further, the “reversal of binding by CaM” value with synthetic lipid vesicles (addition of CaM) was “could be partially reversed”. In addition, the “fluorescence intensity increase, 30 nm vs 400 nm vesicles” value in the experiment on synthetic lipid vesicles (peptide 500 nM, 500 μM vesicles containing PS) is reported as “approximately 1.5 fold”. Also, in the experiment with isolated microvesicles, the “binding to isolated microvesicles (fluorescence enhancement)” value was “demonstrated to bind to these biological particles”.
